Assay results from patent publication US8680272B2, “3-arylethynyl substituted quinazolinone compounds” (Council of Scientific & Industrial Research, priority 2011, dated 2014).

Columns and labels:
[1] = system: TK-10; assay: Anticancer activity, SRB assay, renal cell line TK-10; assay type: cell-based, human; details: Renal TK-10, 48 h continuous drug exposure, —^b means GI50 values not attained at the concentrations used; for GI50: Homo sapiens, read-out: Growth Inhibition GI50
Experimental: (§1) Some of biological activity studies were carried out at the National Cancer Institute (NCI), Maryland, USA.
(§2) The compounds were evaluated for anticancer activity against sixty human cancer cells derived from nine cancer types (leukemia cell line, non-small-cell lung cell line, colon cell line, CNS cell line, melanoma cell line, ovarian cell line, prostate cell line, renal cell line and breast cancer cell line) as shown in Table 1. For each compound, dose response curves for each cell line were measured at a minimum of five concentrations at 10 fold dilutions. A protocol of 48 h continuous drug exposure was used and a sulforhodamine B (SRB) protein assay was used to estimate cell viability or growth.

[2] = system: seven colon cancer cell line (COLO 205, HCC-2998, HCT-116, HCT-15, HT29, KM12 and SW-620); assay: Anticancer activity, SRB assay, colon panel; assay type: cell-based, human; details: for mean graph midpoint values (MG_MID) of log10 TGI (Log10TGI50) / mean graph midpoint values (MG_MID) of Log10LC50 / mean graph midpoint values (MG_MID) of Log10GI50: Colon; for mean graph midpoint values (MG_MID) of log10 TGI (Log10TGI50): log value of concentration of the compound resulting in total inhibition of net cell growth; for mean graph midpoint values (MG_MID) of Log10LC50: log value of the concentration of compounds leading to 50% net cell death; for mean graph midpoint values (MG_MID) of Log10GI50: log values of concentration in mol/L causing 50% inhibition of net cell growth; for GI50: Homo sapiens, seven colon cancer cell line, exposure period of at least 48 h, read-out: GI50 (range over the panel)
Experimental: as §1, §2

[3] = system: NCI-H226; assay: Anticancer activity, SRB assay, non-small lung cell line NCI-H226; assay type: cell-based, human; details: Non-small lung NCl-H226, 48 h continuous drug exposure, —^b means GI50 values not attained at the concentrations used; for GI50: Homo sapiens, NCI-H226, read-out: Growth Inhibition GI50
Experimental: as §1, §2

[4] = system: 786-0; assay: Anticancer activity, SRB assay, renal cell line 786-0; assay type: cell-based, human; details: Renal 786-0, 48 h continuous drug exposure, —^b means GI50 values not attained at the concentrations used; for GI50: Homo sapiens, read-out: Growth Inhibition GI50
Experimental: as §1, §2

[5] = system: NCI-H322M; assay: Anticancer activity, SRB assay, non-small lung cell line NCI-H322M; assay type: cell-based, human; details: Non-small lung NCl-H322M, 48 h continuous drug exposure, —^b means GI50 values not attained at the concentrations used; for GI50: Homo sapiens, NCI-H322M, read-out: Growth Inhibition GI50
Experimental: as §1, §2

[6] = system: HCT-15; assay: Anticancer activity, SRB assay, colon cell line HCT-15; assay type: cell-based; details: Homo sapiens; Colon HCT-15; 48 h continuous drug exposure; read-out: Growth Inhibition GI50
Experimental: as §1, §2

[7] = system: MDA-MB-468; assay: Anticancer activity, SRB assay, breast cell line MDA-MB-468; assay type: cell-based; details: Homo sapiens; Breast MDA-MB-468; 48 h continuous drug exposure; read-out: Growth Inhibition GI50
Experimental: as §1, §2

[8] = system: HOP-62; assay: Anticancer activity, SRB assay, non-small lung cell line HOP-62; assay type: cell-based, human; details: Non-small lung HOP-62, 48 h continuous drug exposure, —^b means GI50 values not attained at the concentrations used; for GI50: Homo sapiens, read-out: Growth Inhibition GI50
Experimental: as §1, §2

[9] = system: A549/ATCC; assay: Anticancer activity, SRB assay, non-small lung cell line A549/ATCC; assay type: cell-based, human; details: 48 h continuous drug exposure, —^b means GI50 values not attained at the concentrations used; for GI50: Homo sapiens, read-out: Growth Inhibition GI50
Experimental: as §1, §2

[10] = system: LOX IMVI; assay: Anticancer activity, SRB assay, melanoma cell line LOX IMVI; assay type: cell-based; details: Homo sapiens, 48 h continuous drug exposure, read-out: Growth Inhibition GI50
Experimental: as §1, §2

[11] = system: DU-145; assay: Anticancer activity, SRB assay, prostate cell line DU-145; assay type: cell-based, human; details: Prostate DU-145, 48 h continuous drug exposure, —^b means GI50 values not attained at the concentrations used; for GI50: Homo sapiens, read-out: Growth Inhibition GI50
Experimental: as §1, §2

[12] = system: sixty human cancer cell lines derived from nine cancer types; assay: Anticancer activity against sixty human cancer cell lines; assay type: cell-based
Experimental: as §1, §2

[13] = system: SN12C; assay: Anticancer activity, SRB assay, renal cell line SN12C; assay type: cell-based, human; details: 48 h continuous drug exposure, —^b means GI50 values not attained at the concentrations used; for GI50: Homo sapiens, read-out: Growth Inhibition GI50
Experimental: as §1, §2

[14] = system: HCC-2998; assay: Anticancer activity, SRB assay, colon cell line HCC-2998; assay type: cell-based, human; details: Colon HCC-2998, 48 h continuous drug exposure, —^b means GI50 values not attained at the concentrations used; for GI50: Homo sapiens, read-out: Growth Inhibition GI50
Experimental: as §1, §2

[15] = Anticancer activity, SRB assay, melanoma panel; assay type: cell-based, human; details: Homo sapiens; nine melanoma cancer cell line; exposure period of at least 48 h; read-out: GI50 (range over the panel)
Experimental: as §1, §2

[16] = system: nine melanoma cancer cell line (LOX IMVI, MALME-3M, M14, MDA-MB-435, SK-MEL-2, SK-MEL-28, SK-MEL-5, UACC-257 and UACC-62); assay: Anticancer activity, SRB assay, melanoma panel; assay type: cell-based, human; details: Melanoma; for mean graph midpoint values (MG_MID) of log10 TGI (Log10TGI50): log value of concentration of the compound resulting in total inhibition of net cell growth; for mean graph midpoint values (MG_MID) of Log10LC50: log value of the concentration of compounds leading to 50% net cell death; for mean graph midpoint values (MG_MID) of Log10GI50: log values of concentration in mol/L causing 50% inhibition of net cell growth
Experimental: as §1, §2

[17] = system: A498; assay: Anticancer activity, SRB assay, renal cell line A498; assay type: cell-based, human; details: 48 h continuous drug exposure, —^b means GI50 values not attained at the concentrations used; for GI50: Homo sapiens, read-out: Growth Inhibition GI50
Experimental: as §1, §2

[18] = system: SNB-19; assay: Anticancer activity, SRB assay, CNS cell line SNB-19; assay type: cell-based, human; details: CNS SNB-19, 48 h continuous drug exposure, —^b means GI50 values not attained at the concentrations used; for GI50: Homo sapiens, read-out: Growth Inhibition GI50
Experimental: as §1, §2

[19] = system: COLO 205; assay: Anticancer activity, SRB assay, colon cell line COLO 205; assay type: cell-based; details: Homo sapiens; Colon COLO 205; 48 h continuous drug exposure; read-out: Growth Inhibition GI50
Experimental: as §1, §2

[20] = system: RXF 393; assay: Anticancer activity, SRB assay, renal cell line RXF 393; assay type: cell-based, human; details: Renal RXF 393; 48 h continuous drug exposure; —^b means GI50 values not attained at the concentrations used
Experimental: as §1, §2

SMILES | GI50 [1] [nM] | mean graph midpoint values (MG_MID) of log10 TGI (Log10TGI50) [2] | mean graph midpoint values (MG_MID) of Log10LC50 [2] | mean graph midpoint values (MG_MID) of Log10GI50 [2] [mol/L] | GI50 [2] [nM] | GI50 [3] [nM] | GI50 [4] [nM] | GI50 [5] [nM] | GI50 [6] [nM] | GI50 [7] [nM] | GI50 [8] [nM] | GI50 [9] [nM] | GI50 [10] [nM] | GI50 [11] [nM] | in vitro anticancer activity (in words) [12] | GI50 [15] [nM] | mean graph midpoint values (MG_MID) of log10 TGI (Log10TGI50) [16] | mean graph midpoint values (MG_MID) of Log10LC50 [16] | mean graph midpoint values (MG_MID) of Log10GI50 [16] [mol/L] | GI50 [19] [nM] | also measured
Cc1cc(C#Cc2ccccc2)ccc1-n1c(/C=C/c2ccc(O)cc2)nc2ccccc2c1=O [Compound 4b, (E)-2-(4-Hydroxystyryl)-3-(2-methyl-4-(phenylethynyl)phenyl)quinazolin-4(3H)-one] | 2620 | −4.83 | −4.15 | −5.55 | 1990 to 4080 | 3990 | 3650 | 2930 | 2500 | 3780 | 13100 | 3140 | 2780 | 4870 | exhibiting an in vitro anticancer activity | 1770 to 4540 | −4.79 | −4.16 | −5.54 | 1990 | GI50 [13]: 3770 nM; GI50 [14]: 2350 nM; GI50 [17]: 1560 nM; GI50 [18]: 6910 nM
Cc1cc(C#Cc2ccccc2)ccc1-n1c(/C=C/c2cc(O)ccc2O)nc2ccccc2c1=O [Compound 4c, (E)-2-(2,5-Dihydroxystyryl)-3-(2-methyl-4-(phenylethynyl)phenyl)quinazolin-4(3H)-one] | 2030 | −5.53 | −5.23 | −5.83 | 1030 to 1950 | 1520 | 1740 | 1620 | 1030 | 1610 | 1710 | 1280 | 1370 | 419 | exhibiting an in vitro anticancer activity | 1350 to 1670 | −5.52 | −5.22 | −5.83 | 1480 | GI50 [13]: 1620 nM; GI50 [14]: 1360 nM; GI50 [17]: 370 nM; GI50 [18]: 1620 nM
COc1ccc2cc(C#Cc3ccc(-n4c(/C=C/c5cc(OC)c(OC)c(OC)c5)nc5ccccc5c4=O)c(C)c3)ccc2c1 [Compound 6l, (E)-3-(4-((6-Methoxynaphthalen-2-yl)ethynyl)-2-methylphenyl)-2-(3,4,5-trimethoxystyryl)quinazolin-4(3H)-one] |  | >−4.00 | >−4.00 | −5.16 | 1220 to 17200 |  |  |  | 1220 | 3800 |  |  | 5960 |  | exhibiting an in vitro anticancer activity | 1850 to 42600 | >−4.00 | >−4.00 | −4.79 | 6960 | Growth Inhibition GI50 [1]: —^b; Growth Inhibition GI50 [3]: —^b; Growth Inhibition GI50 [4]: —^b; Growth Inhibition GI50 [5]: —^b; Growth Inhibition GI50 [20]: —^b; Growth Inhibition GI50 [8]: —^b; Growth Inhibition GI50 [9]: —^b; Growth Inhibition GI50 [11]: —^b; Growth Inhibition GI50 [13]: —^b; Growth Inhibition GI50 [14]: —^b; Growth Inhibition GI50 [17]: —^b; Growth Inhibition GI50 [18]: —^b
